Measured values taken from patent publication US20160082016A1, “Use of Clonazepam in Combination with Antibiotic in the Treatment of Bacterially Induced Meningitis” (COMMISSARIAT A L'ENERGIE ATOMIQUE ET AUX ENERGIES …, priority 2013, published 2016).

Experiments:
[1] = test system: Streptococcus Pneumoniae; assay: Antibiogram: growth inhibition diameter around paper disks on Mueller-Hinton gelose; type: cell-based; conditions: 24 hours, FIG. 5
Protocol: Antibiograms have been performed on the same Streptococcus Pneumoniae strain, on a Mueller-Hinton gelose plate of 90 mm diameter (Biorad) as follows 40 μL of the prepared bacteria were added to 5 mL PBS and the mix is spread on the gelose plate. The remaining liquid mix is thrown and the plate was incubated at 37° C. during 15 minutes. Antibiotic paper disks of 6mm diameter (Dominique Dutscher) were then overwhelmed with 25 μL of each molecule/combination and placed on the Mueller-Hinton gelose for 24 hours. The inhibition diameter of bacterial cell growth around the disks was then measured. • Ceftriaxone (3,2-1,6-0,8-0,4-0,2-0,1-0,05 μg/mL) • Clonazepam (10-1-0,1 μg/mL) • Ceftriaxone (0,8-0,2-0,05 μg/mL)+Clonazepam (0,1 μg/mL)

[2] = in vivo; cited from earlier work
[3] = test system: pentylenetetrazol (PTZ) induced tonic seizures; assay: Anti-epileptic effect at low dose: time before pentylenetetrazol (PTZ) induced tonic seizure; type: in vivo, mice
[4] = test system: Streptococcus Pneumoniae; assay: Survival of Swiss mice inoculated with Streptococcus Pneumoniae, treated with ceftriaxone plus adjuvant (bacterial meningitis model); type: in vivo
Protocol: 200 μL of suspended 1 Mc Farland bacteria (Streptococcus Pneumoniae, CRBIP, Institut Pasteur) were seeded overnight on blood Columbia plates (BioRad). 24 h later, bacteria were suspended in 5 mL phosphate buffer solution (PBS), and diluted to obtain 1 Mc Farland 600 nm optical density (3,2.10^7 bacteria/mL for this strain).
A mice model mimicking human bacterial meningitis (Gerber G., Acta Neuropathol. 2001) was implemented; Swiss male mice were used, with food and water ab libitum. Mice were anaesthetized using isoflurane.
The Swiss mice model has been chosen for the following reasons: • It is possible to induce bacterial meningitis in a direct and reproducible way (Gerber G., Acta Neuropathol. 2001). • The induced meningitis is similar to human meningitis (Gerber G., Acta Neuropathol. 2001). In particular, the inoculated mice present several […] symptoms/responses as infected humans. The data obtained with this model can therefore be transposed to human. • Efficiency of antibiotic agents for treating bacterial meningitis is currently studied in mice (Shapiro M. A. et al, J. Antimicrob. Chemother. 2000).
A 1/80 dilution of the prepared bacteria was then performed, so as to obtain 10^4 bacteria in 25 μL. 25 μL bacteria suspension were injected in the left brain hemisphere. 24 h, 48 h and 72 h later, mice were treated with 4 mg/day, 0.4 mg/day and 0.4 mg/day respectively of ceftriaxone. Clonazepam (or saline buffer, or water) was administrated 25 h post inoculation, by intraperitoneal (ip) or oral (po) route. Mortality was assessed several times per day, during 9 days.

## CO/N=C(\C(=O)N[C@@H]1C(=O)N2C(C(=O)O)=C(CSc3nc(=O)c(=O)[nH]n3C)CS[C@H]12)c1csc(N)n1 [ceftriaxone]
[1]; ceftriaxone alone 0,05-3,2 μg/mL
  Growth inhibition diameter: inhibit bacterial growth in a dose-dependent manner

## O=C1CN=C(c2ccccc2Cl)c2cc([N+](=O)[O-])ccc2N1 [clonazepam, 5-(2-chlorphenyl)-1,3-dihydro-7-nitro-2H-1,4-benzodiazepine-2-one]
[2]
  half-life: 18 to 50 h
[1]; ceftriaxone 0,8-0,2-0,05 μg/mL + clonazepam 0,1 μg/mL
  Growth inhibition diameter (potentiation of ceftriaxone in vitro): Nor is it able to potentiate the antibiotic activity of ceftriaxone in vitro
[1]; clonazepam alone 10, 1, 0,1 μg/mL
  Growth inhibition diameter (intrinsic antibiotic activity): no intrinsic antibiotic activity
[3]; Streptococcus Pneumoniae inoculated mice, clonazepam doses inferior to 5 μg/kg, FIG. 4
  Anti-epileptic effect (time before tonic seizures): no epileptic effect
[3]; clonazepam 4 μg/kg, concluded from the 1-125 μg/kg experiments
  Anti-epileptic effect at the efficient adjuvant dose: no epileptic effect
[3]; healthy (non inoculated) mice, ip pretreatment 60 min before PTZ, FIG. 4
  Amount at which clonazepam has an anti-epileptic effect: ≥ 25 µg/kg
[3]; healthy mice, clonazepam 1 μg/kg ip, FIG. 4
  Anti-epileptic effect (time before tonic seizures): no effect
[3]; healthy mice, clonazepam 5 μg/kg ip, FIG. 4
  Anti-epileptic effect (time before tonic seizures): no effect
[4]; clonazepam 1 μg/kg ip + ceftriaxone, compared with 4 μg/kg, p=0,045 Logrank, FIG. 2
  Kaplan-Meier survival rate: significantly less efficient
[4]; clonazepam 2 μg/kg ip + ceftriaxone, compared with 4 μg/kg, p=0,045 Logrank, FIG. 2
  Kaplan-Meier survival rate: significantly less efficient
[4]; clonazepam 4 μg/kg ip 25 h after inoculation + ceftriaxone 4, 0.4, 0.4 mg/day at 24, 48, 72 h, vs ceftriaxone + NaCl, p=0,04 Logrank, FIG. 1
  Kaplan-Meier survival rate: survival increase
[4]; clonazepam 4 μg/kg orally + ceftriaxone, compared with intraperitoneally administered combination, FIGS. 1, 3, 6
  Kaplan-Meier survival rate, oral vs intraperitoneal: lower
[4]; clonazepam 20 μg/kg ip + ceftriaxone, compared with 4 μg/kg, FIG. 1
  Kaplan-Meier survival rate: not as efficient
[4]; clonazepam 100 μg/kg ip + ceftriaxone, compared with 4 μg/kg, FIG. 1
  Kaplan-Meier survival rate: not as efficient
[4]; mice, clonazepam with antibiotic
  Amount giving satisfactory potentiating effects in mice: at least 2 μg/kg
